# How the values were obtained:
# lactase = molecular target: T1, lactase (Aspergillus oryzae, UniProt Q2UCU3); experiment: Lactase activity after dithiol molecule treatment (ONPG); type: biochemical; conditions: 2.5, 5, or 10 mM, 37° C., 20 min
# T1 construct: purchased MilliporeSigma G5160
# T1 sequence (Q2UCU3 19-1005): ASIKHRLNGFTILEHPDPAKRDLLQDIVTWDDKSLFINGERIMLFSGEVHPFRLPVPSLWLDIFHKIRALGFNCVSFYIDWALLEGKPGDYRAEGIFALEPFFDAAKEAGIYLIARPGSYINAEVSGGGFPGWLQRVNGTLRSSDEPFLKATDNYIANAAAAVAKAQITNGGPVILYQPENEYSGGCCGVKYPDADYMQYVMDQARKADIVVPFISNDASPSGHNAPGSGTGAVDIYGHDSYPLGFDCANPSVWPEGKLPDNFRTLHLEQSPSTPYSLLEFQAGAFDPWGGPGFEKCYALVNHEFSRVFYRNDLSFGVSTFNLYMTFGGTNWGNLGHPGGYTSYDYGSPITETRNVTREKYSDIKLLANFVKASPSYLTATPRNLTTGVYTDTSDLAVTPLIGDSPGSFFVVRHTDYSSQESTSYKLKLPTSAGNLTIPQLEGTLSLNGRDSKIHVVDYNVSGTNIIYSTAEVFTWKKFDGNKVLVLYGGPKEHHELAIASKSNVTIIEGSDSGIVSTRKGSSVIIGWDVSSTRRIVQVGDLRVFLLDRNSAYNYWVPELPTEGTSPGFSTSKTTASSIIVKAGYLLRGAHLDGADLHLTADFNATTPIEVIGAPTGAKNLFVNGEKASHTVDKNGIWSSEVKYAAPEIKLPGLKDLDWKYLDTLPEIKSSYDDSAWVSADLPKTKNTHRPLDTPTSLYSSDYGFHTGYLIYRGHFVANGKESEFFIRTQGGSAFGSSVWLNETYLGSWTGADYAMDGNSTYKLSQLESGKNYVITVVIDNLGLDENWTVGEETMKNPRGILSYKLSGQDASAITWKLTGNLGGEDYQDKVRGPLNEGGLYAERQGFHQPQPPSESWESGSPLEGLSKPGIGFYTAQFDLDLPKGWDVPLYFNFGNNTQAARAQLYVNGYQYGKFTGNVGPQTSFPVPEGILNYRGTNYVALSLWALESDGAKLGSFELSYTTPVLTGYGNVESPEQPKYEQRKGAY
# Protocol: Lactase (18 μg, 60 μL) was added to DMSA or PEG-dithiol to a final DMSA/PEG-dithiol concentration of 2.5, 5, or 10 mM. Treatments were incubated at 37° C. for 20 min. Lactase activity was assayed by adding 60 μL of 5 mM ONPG and incubation for 1 min at room temperature. After, 300 μL of 1 M Na2CO3 was added to stop the reaction, and the absorbance of the solution was read at λ=420 nm.
# [1] = Encapsulated lumefantrine pharmacokinetics; type: in vivo; conditions: pigs, 960 mg lumefantrine
# Protocol: All animal studies were performed only after MIT CAC review and approval and under veterinarian supervision. Pigs were dosed with the following treatments via endoscopy: free lumefantrine, lumefantrine encapsulated in alginate hydrogels, and lumefantrine encapsulated in LIFT hydrogels (n=3 each). All pigs were dosed with a total of 960 mg lumefantrine. For free lumefantrine, drug powder was weighed and placed across three gelatin capsules. For hydrogel formulations, lumefantrine powder was suspended in polymer solution (0.5% w/v alginate or 0.5% w/v alginate/5% 4-arm PEG-maleimide), mixed, and administered after crosslinker solution (200 mM CaCl2/10 mM DMSA). Blood was sampled via an installed ear catheter at the indicated time points, and lumefantrine area under the curve was calculated by the trapezoidal rule.
# Plasma lumefantrine and desbutyl lumefantrine were separated via high pressure liquid chromatography (HPLC) and quantified with an Agilent 6495A electrospray ionization (ESI) triple quadrupole mass spectrometer (Agilent Technologies, Santa Clara, CA). Samples were introduced to the system with a 5 μL injection volume. Chromatography was performed on an Acquity BEH C18 column (2.1×50 mm, dP 1.8 μm, Waters, Milford, MA), heated to 50° C., with a binary mobile phase composed of 0.1% formic acid in water (v/v, A) and 5% tetrahydrofuran in methanol (v/v, B). […] Nozzle voltage was set to 1500 V and capillary voltage was set to 3500 V. Dynamic multiple reaction-monitoring was used to quantify analytes. Lumefantrine was monitored at transitions 528.16 to 510.00 m/z at 28 collision energy (CE), with a qualifier transition from 528.16 to 383.00 m/z (40 CE). Desbutyl lumefantrine was monitored at 472.1 to 454.1 m/z (20 CE) and qualified from 472.1 to 346 m/z (36 CE). Halofantrine was used as an internal standard and quantified with the 500.18 to 142.10 m/z transition (24 CE) and qualified with the 500.18 to 100.10 m/z transition. […]
# cellulase = experiment: Cellulase activity after acid exposure in vitro; type: biochemical; conditions: short incubations in gastric acid
molecule,measurement,setting,value
"O=C(O)C(S)C(S)C(=O)O (centres unmarked) [DMSA, dimercaptosuccinic acid]",lactase activity after exposure to dithiol compound,lactase,attenuated lactase activity
"CCCCN(CCCC)CC(O)c1cc(Cl)cc2c1-c1ccc(Cl)cc1/C2=C/c1ccc(Cl)cc1 (centres unmarked) [free lumefantrine, Lumefantrine]",AUC,"[1]; pig, other: via endoscopy, plasma, n=3, trapezoidal rule, read-out: area under the curve (AUC) of released drug",14900 ng·h/mL
same,Cmax,"[1]; pig, other: via endoscopy, plasma, n=3, read-out: maximum observed drug concentration (Cmax)",901 ± 197 ng/mL
same,time of peak plasma drug concentration post-administration,[1]; n=3,5 to 7 h
cellulase,activity of free cellulase,cellulase,significantly degraded enzyme activity

# From patent US20260130847A1, “INGESTIBLE IN VIVO-ASSEMBLING DRUG RELEASE FORMULATIONS AND METHODS” (Massachusetts Institute of Technology, priority 2022, published 2026)
